Results from patent publication US11192890B2, “FGFR kinase inhibitors and pharmaceutical uses” (AUCKLAND UNISERVICES LIMITED, priority 2017, dated 2021).
Like-named read-outs stand apart in the source and are kept apart here.

What was measured:
SW780 cells = assay: Oxic and anoxic anti-proliferative activity of the prodrugs; type: cell-based
[1] = Pulse radiolysis of prodrugs; type: physicochemical
[2] = Murine plasma pharmacokinetics assay; type: in vivo, NIH-III nude mice; details: for AUC(0-inf) / half-life / Cmax / Tmax / AUC(0-t): female, NIH-III nude, mouse, ip, plasma; for AUC(0-t): observed, read-out: AUC0-24
Procedure: Compound 204 was formulated in water for injection at 2 or 4 mg/ml to be administered by intraperitoneal injection at 0.02 ml/g body weight to achieve a 40 or 80 mg/kg dose. Specific pathogen-free female NIH-III mice (Crl:NIH Lyst^bg Foxn1^nu Btk^xid) were obtained from the Vernon Jansen Unit (VJU), The University of Auckland. To minimize exogenous infection, mice were maintained in individually ventilated cages at 6 mice per cage (Sealsafe Plus Mouse AERO, Tecniplast) and handled in accordance with the Guide for the Care and Use of Laboratory Animals, The University of Auckland. Mice had access to water and food ad libitum. Following dosing, at the specified time points (0.5, 1, 2, 4, 6 and 24 hours, n=3 per time point) mice were anaesthetised (isoflurane inhalation) and blood collected through cardiac puncture. Mice were subsequently culled via cervical dislocation whilst anaesthetized. Blood was collected in ice cold tubes (BD Microtainer® containing K2EDTA) and centrifuged (7 minutes at 6,500 rpm) to separate the plasma fraction. Plasma samples were stored at −80° C. until analysis. Control mice were injected with vehicle only and plasma collected as described. Prior to analysis by LC-MS/MS, calibration standards were prepared in control mouse plasma with a synthetic standard of Compound 204. Plasma samples expected to be outside the range of these standards were diluted in control mouse plasma. Standards and samples were mixed with 3 volumes of ice-cold acetonitrile containing internal standard (2 uL) and then centrifuged at 13000 rpm for 10 minutes at 4° C. The resulting supernatant was diluted in 2 volumes of 0.01% formic acid in water and 10 uL injected onto the LC-MS/MS system using an established quantitative analysis method. Pharmacokinetic parameters resulting from model fit of Compound 204 plasma concentration-time data were then derived where Tmax=time at maximum concentration, Tmax-obs=time at maximum observed concentration, Cmax-obs=maximum concentration observed, Cmax=maximum concentration determined by model, T1/2=half-life of Compound 204 in plasma during elimination phase, AUC0-24=observed area under the mean concentration-time curve, AUC0-inf=area under the concentration-time curve of the model fit.

[3] = test system: SW780 (FGFR3-amplified bladder cancer) xenograft; assay: Anti-tumour activity, SW780 xenograft; type: in vivo, NIH-III nude mice; details: q3dx4, IP
Procedure: Specific pathogen-free homozygous female NIH-III nude mice (Charles River Laboratories, Wilmington, Mass.) were inoculated subcutaneously with a single cell suspension of SW780 cells (8×10^6 cells/100 μL with Matrigel; right flank) or SNU-16 cells (10×10^6 cells/100 μL; right flank). When tumour xenografts were established (typically 7-14 days for SW780 and 21-28 days for SNU-16) mice were randomized to treatment groups. Test compounds of the present invention were prepared in Water for Injection (WFI). Mice were dosed by intraperitoneal injection (0.01-0.03 ml/g) using the stated schedules and dose levels. […] Tumour size and body weights were measured at regular intervals. Tumour volume was calculated as […] (length×width^2)/6.

[4] = test system: SNU-16 (FGFR2-amplified) gastric cancer xenograft; assay: Anti-tumour activity, SNU-16 xenograft; type: in vivo, NIH-III nude mice; details: 80 mg/kg, q7dx2, IP; to day 11
Procedure: Specific pathogen-free homozygous female NIH-III nude mice (Charles River Laboratories, Wilmington, Mass.) were inoculated subcutaneously with a single cell suspension of SW780 cells (8×10^6 cells/100 μL with Matrigel; right flank) or SNU-16 cells (10×10^6 cells/100 μL; right flank). […] Test compounds of the present invention were prepared in Water for Injection (WFI). Mice were dosed by intraperitoneal injection (0.01-0.03 ml/g) using the stated schedules and dose levels. […] Tumour size and body weights were measured at regular intervals. Tumour volume was calculated as n (length×width^2)/6.

[5] = test system: 4T1 murine syngeneic breast cancer cells; assay: Anti-tumour activity, murine 4T1 model; type: in vivo, BALB/c mice; details: 70 mg/kg IP, controls 16 days
Procedure: Studies in BALB/c mice: 4T1 murine syngeneic breast cancer cells (7.5×10^6 cells/mouse) were implanted into the subcutaneous space, in the right flank of immunocompetent BALB/c female mice. Treatment with Compound 204 started at the stated day post cell-implant. Compound 204 was administered intraperitoneally at the stated dose and schedule in Water for Injection. Tumour measurements and body weight were recorded every day, until all tumours increased their volume 4-fold (RTV^4) from day0 of experimental assignment.

[6] = test system: SiHa xenograft (tumour hypoxia); assay: EF5 immunostaining and MALDI imaging mass spectrometry assay; type: in vivo, NIH-III nude mice; details: 86 mg/kg IP, tumours collected after 24 hours; EF5 60 mg/kg
Procedure: SiHa cervical tumour cells were implanted into the flanks of female NIH-III mice to form subcutaneous xenografts. […] Vehicle and drug-treated SiHa tumours were sectioned at 12 um and collected by melting. Five serial sections were collected from each sample such that sections 1, 3 and 5 were mounted on a standard glass slide for optical microscopy, while sections 2 and 4 were mounted on ITO coated glass slides for MALDI imaging. Slides were stored at −80° C. until required.
Imaging mass spectrometry was performed at 30 um spatial resolution using a MALDI FT-ICR mass spectrometer (Bruker Solarix-XR 7T) operating in positive ion mode. […] They were washed in dH2O for 5 minutes, in Tris-Buffered saline (TBS) for 10 minutes and blocked with 10% goat serum in TBS and 1% Tween-20, for 1 h, at room temperature. Sections were then incubated with Alexa488-ELK3-51 antibody (Hypoxia-Imaging.org, University of Pennsylvania, US) that recognises EF5 adducts in hypoxic cells and counterstained with DAPI.

H520 cells = assay: Oxic and anoxic anti-proliferative activity of the prodrugs
SUM52 cells = assay: as above

Q: What does the source list for `COc1cc(OC)c(Cl)c(N2Cc3cnc(Nc4ccccc4)nc3N(C3CCN(C(=O)/C=C/C[N+](C)(C)Cc4c([N+](=O)[O-])ncn4C)CC3)C2=O)c1Cl.[Br-]` [Compound 204, (E)-4-(4-(3-(2,6-dichloro-3,5-dimethoxyphenyl)-2-oxo-7-(phenylamino)-3,4-dihydropyrimido[4,5-d]pyrimidin-1(2H)-yl)piperidin-1-yl)-N,N-dimethyl-N-((1-methyl-4-nitro-1H-imidazol-5-yl)methyl)-4-oxobut-2-en-1-aminium bromide]?
A: IC50 (SW780 cells; Homo sapiens, SW780, oxic conditions, read-out: Cellular Anti-proliferative IC50, SW780, Oxic): 1.39 µM; fold less potent than the inhibitor compound 112 at inhibiting proliferation (deactivation) (SW780 cells; SW780, oxic): 143 fold; first order rate of fragmentation kfrag [1]: 30 s⁻¹; change of maximum plasma concentration and area under the plasma concentration-time curve with increase in dose ([2]; 40 and 80 mg/kg intraperitoneal): linear increase; time to maximum plasma concentration ([2]; doses of 40 and 80 mg/kg intraperitoneal): 2 to 3 h; AUC(0-inf) ([2]; 40 mg/kg intraperitoneal, model fit): 262 ± 10.8 µM·h; AUC(0-inf) ([2]; 80 mg/kg intraperitoneal, model fit): 606 ± 103 µM·h; half-life ([2]; 40 mg/kg, 40 mg/kg intraperitoneal, elimination phase, read-out: T1/2 (converted)): 1.21 ± 0.06 h; Cmax ([2]; 40 mg/kg, 40 mg/kg intraperitoneal, model fit, read-out: Cmax): 54.9 ± 2.38 µM; Tmax ([2]; 40 mg/kg, 40 mg/kg intraperitoneal, model fit, read-out: Tmax): 1.75 ± 0.06 h; AUC(0-t) ([2]; 40 mg/kg, 40 mg/kg intraperitoneal): 382 µM·h; Cmax ([2]; 40 mg/kg, 40 mg/kg intraperitoneal, read-out: Cmax-obs): 51.8 ± 7.46 µM; Tmax ([2]; 40 mg/kg, 40 mg/kg intraperitoneal, read-out: Tmax-obs): 2 h; half-life ([2]; 80 mg/kg, 80 mg/kg intraperitoneal, elimination phase, read-out: T1/2 (converted)): 1.79 ± 0.36 h; Cmax ([2]; 80 mg/kg, 80 mg/kg intraperitoneal, model fit, read-out: Cmax): 86.4 ± 10.4 µM; Tmax ([2]; 80 mg/kg, 80 mg/kg intraperitoneal, model fit, read-out: Tmax): 2.58 ± 0.36 h; AUC(0-t) ([2]; 80 mg/kg, 80 mg/kg intraperitoneal): ~900 µM·h; Cmax ([2]; 80 mg/kg, 80 mg/kg intraperitoneal, read-out: Cmax-obs): 77.3 ± 14.7 µM; Tmax ([2]; 80 mg/kg, 80 mg/kg intraperitoneal, read-out: Tmax-obs): 4 h; half-life ([2]; 80 mg/kg, doses of 40 and 80 mg/kg intraperitoneal, read-out: plasma half-life): 1.2 to 1.8 h; time for tumours to reach RTV4 ([3]; 100 umol/kg dose): approximately 26 days; tumour response at the higher doses tested ([3]; 30 to 133 umol/kg/dose): regressed the tumours; tumour response [4]: regressed following each drug administration; median survival time ([5]; q2dx3): 18 days; median survival time ([5]; q3dx3): 20 days; median survival time ([5]; q4dx3): 21 days; median survival time ([5]; q5dx3): 22 days; metabolism of prodrug and release of FGFR inhibitor compound 112 in tumours [6]: hypoxia-selective metabolism; fold less potent than the inhibitor compound 112 at inhibiting proliferation (deactivation) (H520 cells; H520, oxic): 307 fold; Hypoxic Cytotoxicity Ratio (HCR), H520 (H520 cells; ratio of oxic and anoxic IC50): 27; IC50 (H520 cells; read-out: Cellular Anti-proliferative IC50, H520, Anoxic, 4 hours of anoxia, remainder of assay oxic): 0.047 µM; IC50 (H520 cells; read-out: Cellular Anti-proliferative IC50, H520, Oxic, oxic conditions): 1.26 µM; fold less potent than the inhibitor compound 112 at inhibiting proliferation (deactivation) (SUM52 cells; SUM52, oxic): 296 fold; Hypoxic Cytotoxicity Ratio (HCR), SUM52 (SUM52 cells; ratio of oxic and anoxic IC50): 12; IC50 (SUM52 cells; read-out: Cellular Anti-proliferative IC50, SUM52, Anoxic, 4 hours of anoxia, remainder of assay oxic): 0.017 µM; IC50 (SUM52 cells; read-out: Cellular Anti-proliferative IC50, SUM52, Oxic, oxic conditions): 0.207 µM
